The numbers were not newly measured in patent US20030228375A1 (priority 2002, published 2003), which cites them from elsewhere.

Like-named read-outs stand apart in the source and are kept apart here.

For data set [1] the following is noted: in vivo.
For data set [2] the following is noted: supplementation.
For data set [3] the following is noted: supplementation. This is another data set of the same source.
For the next data set, the target named is T1, aromatase (Homo sapiens, UniProt P11511).
T1 sequence (P11511 1-503): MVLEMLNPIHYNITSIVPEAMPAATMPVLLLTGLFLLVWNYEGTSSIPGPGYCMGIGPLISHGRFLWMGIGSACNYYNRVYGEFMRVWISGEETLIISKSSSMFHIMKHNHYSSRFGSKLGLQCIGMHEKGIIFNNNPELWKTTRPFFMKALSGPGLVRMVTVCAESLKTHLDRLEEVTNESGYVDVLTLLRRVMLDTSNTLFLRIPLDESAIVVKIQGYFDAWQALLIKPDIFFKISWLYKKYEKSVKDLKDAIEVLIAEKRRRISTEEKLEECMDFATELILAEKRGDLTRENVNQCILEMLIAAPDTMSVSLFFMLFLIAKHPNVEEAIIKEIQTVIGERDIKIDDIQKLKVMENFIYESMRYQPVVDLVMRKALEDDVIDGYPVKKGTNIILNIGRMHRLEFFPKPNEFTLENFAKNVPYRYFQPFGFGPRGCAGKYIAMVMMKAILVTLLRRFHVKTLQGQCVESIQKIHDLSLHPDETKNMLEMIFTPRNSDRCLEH
As to conditions: compared with chrysin, AG and ANG.

The subject of data set [4] is people with panhypopituitarism.
For a further data set, the system named is hypogonadal men. The following applies: for waking erection: Asian group; for sexual interest and activity, spontaneous erection: Caucasian group.
In data set [5] the test system is prostate and seminal vesicle weights.
For the next data set, the system named is HIV-infected men. As to conditions: pharmacological doses.
Another data set deals with healthy young men. The following applies: 300 mg/wk for six weeks; TE shoulders, ND shoulders and chest.
For data set [6] the following is noted: nandrolone use.
The conditions of data set [7]: body builders.
Another data set relates to patients on dialysis. The following applies: compared with placebo.

On to `C[C@]12CC[C@H]3[C@@H](CCC4=C[C@@H](O)CC[C@@]43C)[C@@H]1CC[C@@H]2O` [4-androstenediol], for which the “human serum testosterone levels” value in data set [1] is listed as “elevations in human serum testosterone levels”. In addition, the “urine testosterone concentration relative to 4-androstenedione” value in data set [2] is 10 fold.
As to `C[C@]12CCC(=O)C=C1CC[C@@H]1[C@@H]2CC[C@]2(C)C(=O)CC[C@@H]12` [4-androstenedione], the serum testosterone entry in data set [3] is “elevations in serum testosterone”.
In the case of `C[C@]12CC[C@H]3[C@@H](CC=C4C[C@@H](O)CC[C@@]43C)[C@@H]1CC[C@@H]2O` [5-androstenediol], the “proportion of protein in the body composition” value in the data set with young female rats is “increased the proportion of protein”.
`COc1ccc(-c2coc3cc(O)cc(O)c3c2=O)cc1` [Biochanin A, 5,7-dihydroxy-4′-methoxyisoflavone]: the aromatase inhibition entry on aromatase was “inhibited aromatase, but to a lesser degree”.
As to `C[C@]12CC[C@H](O)CC1=CC[C@@H]1[C@@H]2CC[C@]2(C)C(=O)CC[C@@H]12` [DHEA, dehydro-epiandrosterone], the plasma testosterone entry is listed as “restored plasma testosterone to levels similar to those observed in young women” in data set [4] (50 mg dose) and “slightly below the levels observed in normal men” in [4] (200 mg dose). Also, the “plasma estrogens, particularly estradiol” value in data set [4] (50 mg or 200 mg) was “significant and dose dependent increase”.
With `C[C@@H]1CC2=CC(=O)CC[C@@H]2[C@H]2CC[C@]3(C)[C@@H](O)CC[C@H]3[C@@H]21` [MENT, 7α-methyl-19-nor-testosterone], the “anabolic potency relative to testosterone” value in the data set on levator ani muscles was “ten-times as potent as testosterone”. Also, in the data set on hypogonadal men, the waking erection entry is “increased waking erection”; the “sexual interest and activity, spontaneous erection” value was “significant increases”. In [5], the “androgenic potency relative to testosterone” value was “four- to five-times more androgenic than testosterone”.
Consider `CCCCCCCCCC(=O)O[C@H]1CC[C@H]2[C@@H]3CCC4=CC(=O)CC[C@@H]4[C@H]3CC[C@]12C` [ND, 19-nor-testosterone decanoate], for which the “total weight, lean body mass, body cell mass, muscle size and strength” value with HIV-infected men is listed as “significant gains”. The “body circumferences (of fifteen)” value with healthy young men is reported as “significant increases”.
`CCCCCCC(=O)O[C@H]1CC[C@H]2[C@@H]3CCC4=CC(=O)CC[C@]4(C)[C@H]3CC[C@]12C` [TE, testosterone enanthate]: the “body circumferences (of fifteen)” value with healthy young men is “significant increases”. Further, in the data set on hypogonadal men, the waking erection entry is “increased waking erection”; the “sexual interest and activity, spontaneous erection” value is “significant increases”.
As for `C[C@]12CC[C@H]3[C@@H](CCC4=CC(=O)CC[C@@H]43)[C@@H]1CC[C@@H]2O` [nandrolone, 19-nor-testosterone], in the data set on young female rats, the energy expenditure entry is given as “increased energy expenditure”. Further, in data set [6], the effect on sperm entry is “azoospermia”. For the same molecule, in [7], the “decrease in HDL-cholesterol” value is listed as 25-27%. Further, in the data set on patients on dialysis, the lean body mass result is recorded as “increased significantly”.
For the molecule `C[C@]12CC[C@H]3[C@@H](CCC4=CC(=O)CC[C@@]43C)[C@@H]1CC[C@@H]2O` [testosterone], the “proportion of protein in the body composition” value in the data set on young female rats was “increased the proportion of protein”.
